Results: a melting point compilation (Tetko et al.)

| SMILES | melting point [°C] |
| --- | --- |
| CCc1ccc(-c2nn[nH]n2)cc1 | 237 to 239 |
| O=C(O)CSc1nccs1 | 151 to 153 |
| CC(C)(C)C(=O)C(Cl)Cl | 50 to 52 |
| CC(C)(C)OC(=O)N1CCC(C)(C(=O)O)CC1 | 149 to 151 |
| Oc1cnc2cc(Cl)c(Cl)cc2n1 | 299 to 301 |
| O=C(O)CNC(=O)C=Cc1cccnc1 | 264 to 266 |
| CC(=O)Cn1cc(Br)cn1 | 62 to 64 |
| O=C(O)c1cn(-c2ccccc2)nc1-c1cccc2ccccc12 | 186 to 188 |
| Cc1nn(-c2ccccc2)c(N2CCCC2)c1C=O | 71 to 73 |
| Nc1c2c(nn1-c1ccccc1)CCC2 | 180 to 182 |
| Nc1ccc(CSc2ccccn2)cc1 | 103 to 105 |
| Nn1c(S)nnc1Cc1ccccc1F | 158 to 161 |
| NC(CSCCc1ccccc1)C(=O)O (stereo not drawn) | 210 to 212 |
| O=C(O)CNCCO | 184 to 186 |
| O=C(O)C1=COCCC1 | 71 to 73 |
| NC(=O)c1ccc(N2CCC(C(=O)O)CC2)nc1 | 284 to 286 |
| CCCn1c(N)cc(=O)n(C)c1=O | 166 to 168 |
| CC(=O)C12CC3CC(C1)CC(C(=O)O)(C3)C2 | 123 to 125 |
| CC(C)(C)OC(=O)NC(C(=O)O)C(C)(C)C (stereo not drawn) | 117 to 119 |
| N#CCCn1c(S)nc2ccccc21 | 154 to 158 |
| Cn1ncc2c(=O)[nH]c(NN)nc21 | 285 to 287 |
| Oc1nc(S)nc2c1CCC2 | 288 to 290 |
| O=C(O)CCC(=O)N1CCc2sccc2C1 | 130 to 132 |
| CC(C)(C)Cc1noc2nc(C3CC3)cc(C(=O)O)c12 | 164 to 166 |
| Nc1nc(-c2ccc[nH]2)cs1 | 155 to 159 |
| CC1(C)CC(=O)c2cc(Br)cc(Cl)c2O1 | 48 to 50 |
| CCOC(=O)C1CCCN1S(N)(=O)=O (stereo not drawn) | 123 to 125 |
| Nc1nnc(Cc2ccccc2F)o1 | 167 to 169 |
| Nc1nc2ccc(Oc3ccccc3)cc2s1 | 159 to 161 |
| CC1CCc2[nH]c(=O)sc2C1 (stereo not drawn) | 180 to 182 |

The next lines start with the values.

| melting point [°C] | SMILES |
| --- | --- |
| 171 to 173 | Cc1ccc(S(=O)(=O)NC(CCC(N)=O)C(=O)O)cc1C (stereo not drawn) |
| 110 to 112 | Clc1ccc2c(c1)NCCS2 |
| 141 to 143 | COCCOc1ccc(C(N)=S)cc1 |
| 111 to 113 | Cc1ccc(/C=C/S(=O)(=O)Cl)cc1 |
| 203 to 205 | CC(C)Oc1ccc(-c2nc(C(=O)O)cs2)cc1 |
| 159 to 161 | COC(=O)c1cc2c(Br)cccc2[nH]1 |
| 194 to 196 | O=C(Cn1cnnn1)Nc1ccccc1C(=O)O |
| 201 to 203 | Cc1cc(Br)c(O)c(C(=O)O)c1 |
| 111 to 114 | COc1cc(SC)ccc1C(=O)O |
| 206 to 208 | CNC(=O)c1ccc(NC(=O)CCl)cc1 |
| 174 to 176 | CCc1cc(=O)c2ccccc2[nH]1 |
| 114 to 116 | O=C(O)c1cc(Cl)nc(Cl)n1 |
| 54 to 56 | OCCNCc1ccc(Cl)c(Cl)c1 |
| 166 to 168 | CN(C(=O)C1CC1)c1ccccc1C(=O)O |
| 116 to 118 | CC(C)(C)OC(=O)N1CCc2ncc(N)cc2C1 |
| 189 to 191 | Cn1cc(C(=O)O)c(=O)n(C)c1=O |
| 54 to 56 | COCCOc1ccc(F)cc1[N+](=O)[O-] |
| 218 to 220 | O=C(O)c1ccc(Cl)cc1N1CCCC1=O |
| 271 to 273 | Cc1nn(-c2cccc(C(F)(F)F)c2)c2sc(C(=O)O)cc12 |
| 69 to 71 | COC(=O)c1ccc(N)cc1C |
| 160 to 162 | CN1CCN(c2ccc(C(=O)O)cc2[N+](=O)[O-])CC1 |
| 84 to 86 | CCOC(=O)c1cnc2ccccc2c1-n1cncn1 |
| 78 to 80 | COc1ccc(O)cc1C(C)=O |
| 114 to 116 | NC(=O)COc1cccc(CCl)c1 |
| 203 to 205 | CCC1(c2ccccc2)NC(=O)NC1=O (stereo not drawn) |
| 120 to 122 | CCCCc1ccc(NC(=O)/C=N/O)cc1 |
| 198 to 200 | O=C(O)c1cccc(S(=O)(=O)N2CCOCC2)c1 |
| 134 to 136 | Cn1nc(C(=O)NN)c2ccccc2c1=O |
